Source: patent US8541397B2, “Alkyne and alkene derivatives as sphingosine 1-phosphate-1 receptor modulators” (Allergan, Inc., priority 2010, dated 2013)

Target: T1, human S1P1 receptor (Homo sapiens, UniProt P21453)
T1 construct: expressed in transfected cells; membranes used
Test: GTP γ35S binding assay for S1P1 activity
Type: biochemical
Conditions: activity potency, S1P1 receptor from GTP γ35S binding; membranes; test compounds 0.08 to 5,000 nM
Description: Compounds were synthesized and tested for S1P1 activity using the GTP γ^35S binding assay. These compounds may be assessed for their ability to activate or block activation of the human S1P1 receptor in cells stably expressing the S1P1 receptor.
GTP γ^35S binding was measured in the medium containing (mM) HEPES 25, pH 7.4, MgCl2 10, NaCl 100, dithitothreitol 0.5, digitonin 0.003%, 0.2 nM GTP γ^35S, and 5 μg membrane protein in a volume of 150 μl. Test compounds were included in the concentration range from 0.08 to 5,000 nM unless indicated otherwise. Membranes were incubated with 100 μM 5′-adenylylimmidodiphosphate for 30 min, and subsequently with 10 μM GDP for 10 min on ice. Drug solutions and membrane were mixed, and then reactions were initiated by adding GTP γ^35S and continued for 30 min at 25° C. Reaction mixtures were filtered over Whatman GF/B filters under vacuum, and washed three times with 3 mL of ice-cold buffer (HEPES 25, pH7.4, MgCl2 10 and NaCl 100). Filters were dried and mixed with scintillant, and counted for ^35S activity using a β-counter. Agonist-induced GTP γ^35S binding was obtained by subtracting that in the absence of agonist. Binding data were analyzed using a non-linear regression method. In case of antagonist assay, the reaction mixture contained 10 nM S1P in the presence of test antagonist at concentrations ranging from 0.08 to 5000 nM.

T1 sequence (P21453 whole entry): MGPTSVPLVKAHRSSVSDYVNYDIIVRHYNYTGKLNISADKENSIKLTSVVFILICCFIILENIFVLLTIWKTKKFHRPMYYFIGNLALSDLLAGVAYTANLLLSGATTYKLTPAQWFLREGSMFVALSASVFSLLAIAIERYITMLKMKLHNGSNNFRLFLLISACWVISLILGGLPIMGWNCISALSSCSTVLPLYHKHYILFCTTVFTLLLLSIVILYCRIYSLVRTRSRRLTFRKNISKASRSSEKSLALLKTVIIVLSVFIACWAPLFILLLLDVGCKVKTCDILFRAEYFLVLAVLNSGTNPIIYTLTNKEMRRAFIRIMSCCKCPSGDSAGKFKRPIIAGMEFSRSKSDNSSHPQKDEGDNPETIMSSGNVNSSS

Row | Compound | EC50
1 | Cc1ccc(CC(C#Cc2ccc(CNCCC(=O)O)cc2)c2ccc(Cl)cc2)cc1C (stereo not drawn) [Compound 5, 3-({4-[3-(4-chlorophenyl)-4-(3,4-dimethylphenyl)but-1-yn-1-yl]benzyl}amino)propanoic acid] | 0.48 µM
2 | Cc1cccc(C(C#Cc2ccc(CNCCCP(=O)(O)O)cc2)Cc2ccc(C)c(C)c2)c1 (stereo not drawn) [Compound 9, (3-{4-[4-(3,4-Dimethyl-phenyl)-3-m-tolyl-but-1-ynyl]-benzylamino}-propyl)-phosphonic acid] | 0.117 µM
3 | COc1cccc(C(C#Cc2ccc(CNCCC(=O)O)cc2)Cc2ccc(C)c(C)c2)c1 (stereo not drawn) [Compound 1, 3-({4-[4-(3,4-dimethylphenyl)-3-(3-methoxyphenyl)but-1-yn-1-yl]benzyl}amino)propanoic acid] | 0.247 µM
4 | Cc1ccc(CC(C#Cc2ccc(CNCCCP(=O)(O)O)cc2-c2ccco2)c2cccc(F)c2)cc1C (stereo not drawn) [Compound 14, [3-({4-[4-(3,4-dimethylphenyl)-3-(3-fluorophenyl)but-1-yn-1-yl]-3-(2-furyl)benzyl}amino)propyl]phosphonic acid] | 0.239 µM
5 | COc1cccc(C(C#Cc2ccc(CNCCCP(=O)(O)O)cc2)Cc2ccc(C)c(C)c2)c1 (stereo not drawn) [Compound 7, (3-{4-[4-(3,4-Dimethyl-phenyl)-3-(3-methoxy-phenyl)-but-1-ynyl]-benzylamino}-propyl)-phosphonic acid] | 0.16 µM
6 | Cc1ccc(CC(C#Cc2ccc(OCC(O)CO)c(Cl)c2)c2cccc(Cl)c2)cc1C (stereo not drawn) [Compound 19, 3-{2-chloro-4-[3-(3-chlorophenyl)-4-(3,4-dimethylphenyl)but-1-yn-1-yl]phenoxy}propane-1,2-diol] | 0.238 µM
7 | Cc1ccc(CC(C#Cc2ccc(OCC(O)CO)c(Cl)c2)c2cccc(F)c2)cc1C (stereo not drawn) [Compound 20, 3-{2-chloro-4-[4-(3,4-dimethylphenyl)-3-(3-fluorophenyl)but-1-yn-1-yl]phenoxy}propane-1,2-diol] | 0.6 µM
8 | Cc1ccc(CC(C#Cc2ccc(CNCCC(=O)O)cc2C)c2cccc(Cl)c2)cc1C (stereo not drawn) [Compound 2, 3-{4-[3-(3-Chloro-phenyl)-4-(3,4-dimethyl-phenyl)-but-1-ynyl]-3-methyl-benzylamino}-propionic acid] | 0.262 µM
9 | Cc1cccc(C(C#Cc2ccc(CNCCC(=O)O)cc2)Cc2ccc(C)c(C)c2)c1 (stereo not drawn) [Compound 4, 3-({4-[4-(3,4-dimethylphenyl)-3-(3-methylphenyl)but-1-yn-1-yl]benzyl}amino)propanoic acid] | 0.502 µM
10 | Cc1ccc(CC(/C=C/c2ccc(CNCCCP(=O)(O)O)cc2)c2cccc(F)c2)cc1C (stereo not drawn) [Compound 23, [3-({4-[(1E)-4-(3,4-dimethylphenyl)-3-(3-fluorophenyl)but-1-en-1 yl]benzyl}amino)propyl]phosphonic acid] | 0.172 µM
11 | Cc1cccc(C(C#Cc2ccc(OCC(O)CO)c(Cl)c2)Cc2ccc(C)c(C)c2)c1 (stereo not drawn) [Compound 21, 3-{2-chloro-4-[4-(3,4-dimethylphenyl)-3-(3-methylphenyl)but-1-yn-1-yl]phenoxy}propane-1,2-diol] | 0.401 µM
12 | Cc1ccc(CC(C#Cc2ccc(CNCCCP(=O)(O)O)cc2C)c2cccc(F)c2)cc1C (stereo not drawn) [Compound 12, [3-({4-[4-(3,4-dimethylphenyl)-3-(3-fluorophenyl)but-1-yn-1-yl]-3-methylbenzyl}amino)propyl]phosphonic acid] | 1.89 µM
13 | Cc1cccc(C(C#Cc2ccc(CNCCCP(=O)(O)O)cc2-c2cccs2)Cc2ccc(C)c(C)c2)c1 (stereo not drawn) [Compound 15, [3-({4-[4-(3,4-dimethylphenyl)-3-(3-methylphenyl)but-1-yn-1-yl]-3-(2-thienyl)benzyl}amino)propyl]phosphonic acid] | 0.179 µM
14 | Cc1ccc(CC(/C=C/c2ccc(CNCCC(=O)O)cc2)c2cccc(F)c2)cc1C (stereo not drawn) [Compound 22, 3-({4-[(1E)-4-(3,4-dimethylphenyl)-3-(3-fluorophenyl)but-1-en-1-yl]benzyl}amino)propanoic acid] | 0.265 µM

Compounds with a lower EC50, results first:

Row | EC50 | Compound
15 | 0.031 µM | Cc1ccc(CC(C#Cc2ccc(CNCCCP(=O)(O)O)cc2Br)c2cc(F)cc(F)c2)cc1C (stereo not drawn) [Compound 16, [3-({3-bromo-4-[3-(3,5-difluorophenyl)-4-(3,4-dimethylphenyl)but-1-yn-1-yl]benzyl}amino)propyl]phosphonic acid]
16 | 0.0177 µM | Cc1ccc(CC(C#Cc2ccc(CNCCCP(=O)(O)O)cc2C)c2cccc(Cl)c2)cc1C (stereo not drawn) [Compound 10, (3-{4-[3-(3-Chloro-phenyl)-4-(3,4-dimethyl-phenyl)-but-1-ynyl]-3-methyl-benzylamino}-propyl)-phosphonic acid]
17 | 0.006 µM | Cc1ccc(CC(C#Cc2ccc(CNCCCP(=O)(O)O)cc2Br)c2cccc(F)c2)cc1C (stereo not drawn) [Compound 13, [3-({3-bromo-4-[4-(3,4-dimethylphenyl)-3-(3-fluorophenyl)but-1-yn-1-yl]benzyl}amino)propyl]phosphonic acid]
18 | 0.0754 µM | Cc1ccc(CC(C#Cc2ccc(CNCCCP(=O)(O)O)cc2)c2cccc(Cl)c2)cc1C (stereo not drawn) [Compound 8, (3-{4-[3-(3-Chloro-phenyl)-4-(3,4-dimethyl-phenyl)-but-1-ynyl]-benzylamino}-propyl)-phosphonic acid]
19 | 0.066 µM | Cc1ccc(CC(C#Cc2ccc(CNCCC(=O)O)cc2)c2cccc(Cl)c2)cc1C (stereo not drawn) [Compound 3, 3-({4-[3-(3-chlorophenyl)-4-(3,4-dimethylphenyl)but-1-yn-1-yl]benzyl}amino)propanoic acid]
20 | 0.056 µM | Cc1cccc(C(C#Cc2ccc(CNCCCP(=O)(O)O)cc2C)Cc2ccc(C)c(C)c2)c1 (stereo not drawn) [Compound 11, [3-({4-[4-(3,4-dimethylphenyl)-3-(3-methylphenyl)but-1-yn-1-yl]-3 methylbenzyl}amino)propyl]phosphonic acid]
21 | 0.059 µM | Cc1cccc(C(C#Cc2ccc(CNCCCP(=O)(O)O)cc2-c2ccco2)Cc2ccc(C)c(C)c2)c1 (stereo not drawn) [Compound 17, [3-({4-[4-(3,4-dimethylphenyl)-3-(3-methylphenyl)but-1-yn-1-yl]-3-(2-furyl)benzyl}amino)propyl]phosphonic acid]
